According to PubChem BioAssay (NCI):
“And” between values parts separate entries of the source, which are not always exact repeats. Equal values may be shown once.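 Test compounds were applied to cells in 96-well plates for 48 hours at 5 doses. At the GI50, growth is halved. The concentration for full growth arrest is given as TGI.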

How the values were obtained:
Experiment in all cases: DTP human tumour cell line panel, 48 h
RXF 393 renal = test system: RXF 393 renal
HCT-116 colon = test system: HCT-116 colon
SR leukemia = test system: SR leukemia
MOLT-4 leukemia = test system: MOLT-4 leukemia
A549 NSCLC = test system: A549 NSCLC
NCI-H23 lung = test system: NCI-H23 lung
OVCAR-3 ovarian = test system: OVCAR-3 ovarian
HS 578T breast = test system: HS 578T breast
SF-268 CNS = test system: SF-268 CNS
UACC-62 melanoma = test system: UACC-62 melanoma

| SMILES | GI50 (RXF 393 renal) | TGI (RXF 393 renal) | GI50 (HCT-116 colon) | TGI (HCT-116 colon) | TGI (SR leukemia) | TGI (MOLT-4 leukemia) | TGI (A549 NSCLC) | GI50 (NCI-H23 lung) | TGI (NCI-H23 lung) | GI50 (OVCAR-3 ovarian) | TGI (OVCAR-3 ovarian) | GI50 (HS 578T breast) | TGI (HS 578T breast) | GI50 (SF-268 CNS) | TGI (SF-268 CNS) | GI50 (UACC-62 melanoma) | TGI (UACC-62 melanoma) | GI50 (MOLT-4 leukemia) | GI50 (A549 NSCLC) |
| --- | --- | --- | --- | --- | --- | --- | --- | --- | --- | --- | --- | --- | --- | --- | --- | --- | --- | --- | --- |
| NCCNc1ccc(NCCN)c2c1C(=O)c1c(O)ccc(O)c1C2=O | 0.179 µM | 0.387 µM and 0.679 µM | 0.0343 µM | 0.52 µM and 0.446 µM | 0.0171 µM | 0.216 µM | 0.223 µM and 0.393 µM | < 0.0144 µM | 0.0442 µM and 0.0835 µM | 0.385 µM | 2.18 µM and 1.66 µM | 0.225 µM | 0.851 µM and 0.902 µM | 0.0222 µM | 0.985 µM and 3.24 µM | 0.0228 µM | 0.89 µM and 0.313 µM |  |  |
| CC(=O)c1ccc(Nc2nc3ccccc3c3occc23)cc1 |  |  |  | 27.8 µM | 18.4 µM | 11.9 µM | > 100 µM |  | 46.6 µM |  | 71.2 µM |  | 54.1 µM |  | 75.7 µM |  | 41.3 µM |  |  |
| CC(=O)C(C(=O)C(=O)Nc1cc(Cl)c(Cl)cc1Cl)c1csc(N)n1 (configuration not stated) |  | > 100 µM |  | > 100 µM | > 100 µM | > 100 µM | > 100 µM |  | > 100 µM |  |  |  |  |  | > 100 µM |  | > 100 µM |  |  |
| CCCc1cn2c(/C=N/N=C(N)N)c(-c3ccc([N+](=O)[O-])cc3)nc2s1 |  |  |  | 1.6 µM |  | 0.441 µM | 2.91 µM |  | 2.82 µM |  | 0.377 µM |  |  |  |  |  | 3.35 µM |  |  |
| O=[N+]([O-])c1ccc(C2NC(=S)NC3c4cc([N+](=O)[O-])ccc4CCCC23)cc1 (configuration not stated) |  | 45.2 µM |  | > 100 µM | > 100 µM | > 100 µM | > 100 µM |  | > 100 µM |  | > 100 µM |  | > 100 µM |  | > 100 µM |  | > 100 µM |  |  |
| COC1=C(OC)C(=O)C(C/C=C/c2c(Cl)nc3sccn23)=C(C)C1=O |  | 37.5 µM |  | 33.5 µM | 66 µM | 8.97 µM | 33.3 µM |  | 7.76 µM |  | 29.9 µM |  | 54.6 µM |  | 38 µM |  | 29.1 µM |  |  |
| CCCCCC1CC(C(C)=O)CN1c1ccc(F)cc1 (configuration not stated) |  | > 100 µM |  | > 100 µM | > 10 µM |  | > 100 µM |  | 63.8 µM |  | 90.1 µM |  |  |  | > 100 µM |  |  |  |  |
| CCn1c(=O)c2c3ccc(O)cc3[nH]c2c2ccc(O)cc21 |  | > 100 µM |  | > 100 µM | > 100 µM | > 100 µM | > 100 µM |  | > 100 µM |  | > 100 µM |  | > 100 µM |  | > 100 µM |  | > 100 µM |  |  |
| O=C(N/N=C/c1cc(Cl)cc(Cl)c1[O-])c1ccccc1O.O=C(N/N=C/c1cc(Cl)cc(Cl)c1[O-])c1ccccc1O.[Cu+2] |  | 0.766 µM | 0.255 µM | 0.597 µM | 0.511 µM | 2.12 µM | 1.65 µM | 0.436 µM | 1.66 µM |  | 0.778 µM |  |  |  | 1.61 µM |  | 0.819 µM | 0.285 µM | 0.385 µM |
| Cn1cc(-c2csc(-c3cn(CCCN4CCCCC4)c4ccc(Br)cc34)n2)c2cccnc21 | 1.64 µM | 3.19 µM |  |  |  |  |  | 1.79 µM | 3.51 µM | 1.8 µM | 3.38 µM | 2.09 µM | 5.41 µM |  |  | 1.78 µM | 3.4 µM |  |  |
| C[N+]1(C)C/C(=C\C=C\c2ccccc2)C(=O)/C(=C/C=C/c2ccccc2)C1 |  | > 61.1 µM |  | 28.9 µM | 23.9 µM | 16.6 µM | > 100 µM |  | 34.4 µM |  | 42.6 µM |  | > 61.4 µM |  | 43.7 µM |  | 14.2 µM |  |  |
| O=[N+]([O-])c1cc(C(F)(F)F)cc2c1SC1=Nc3ccccc3CN12 |  | > 100 µM |  | > 100 µM |  | > 100 µM | > 100 µM |  | > 100 µM |  | > 100 µM |  |  |  | > 100 µM |  | > 100 µM |  |  |
| Nc1n[nH]c(N)n1 |  | > 10000 µM |  | > 10000 µM | 9840 µM | > 10000 µM | > 10000 µM |  | > 9700 µM |  | > 10000 µM |  | > 10000 µM |  | > 10000 µM |  | 7470 µM |  |  |
| O=C(N/N=C/c1cc(Cl)cc(Cl)c1[O-])c1ccccc1O.O=C(N/N=C/c1cc(Cl)cc(Cl)c1[O-])c1ccccc1O.[Fe+2] |  | 28.8 µM | 11.4 µM | 72.7 µM | 35.8 µM | > 100 µM | 35.2 µM | 6 µM | 31.6 µM |  | 38.5 µM |  |  |  | 38.9 µM |  | 52.4 µM | 19.2 µM | 10.2 µM |
| NC1C2C=CC(C2)C1C(=O)O (configuration not stated) |  | > 100 µM |  | > 100 µM |  | > 100 µM | > 100 µM |  | > 100 µM |  | > 100 µM |  | > 100 µM |  | > 100 µM |  | > 100 µM |  |  |
| CCC/C=C/C=C\C(=O)O[C@@H]1[C@@H](C)[C@]2(O)[C@@H]3C=C(C)C(=O)[C@H]3CC(COC(C)=O)=C[C@H]2[C@@H]2C(C)(C)[C@]12OC(C)=O |  | 113 µM |  | 57.5 µM |  | 85.2 µM | 97.6 µM |  | 98.6 µM |  | 91.2 µM |  |  |  | 87.7 µM |  | 82.5 µM |  |  |
| O=C(N/N=C/c1cc(Cl)cc(Cl)c1[OH2+])c1ccncc1.O=S(=O)([O-])[O-].[Fe+2] |  | 82.1 µM |  | 29.6 µM | 54.6 µM | 40 µM | 53.9 µM |  | 51.3 µM |  | 53.8 µM |  |  |  | > 100 µM |  | 41 µM |  |  |
| NCCCC(N)(C(=O)O)C(F)F (configuration not stated) |  | > 5000 µM |  | > 5000 µM |  | > 5000 µM | > 5000 µM |  | > 5000 µM |  | > 5000 µM |  |  |  | > 5000 µM |  | > 5000 µM |  |  |
| Oc1ccccc1CNCc1ccccc1O |  | > 100 µM |  | > 100 µM |  | > 100 µM | > 100 µM |  | > 100 µM |  | > 100 µM |  | > 100 µM |  | > 100 µM |  | > 100 µM |  |  |
| COc1cc2c(cc1OC)-c1cc3cc(OC)c(OC)cc3c(C)[n+]1CC2 (tested in a mixture with another compound) |  | > 100 µM |  | > 100 µM | […] | 48.1 µM | > 100 µM |  | > 100 µM |  | > 100 µM |  | > 100 µM |  | > 100 µM |  | 95.5 µM |  |  |
| CCN(CC)CCCNC(=O)c1ccccc1Nc1c(Cl)cccc1Cl |  | 23 µM |  | 23.6 µM | 27.6 µM | 27.9 µM | 31.5 µM |  | 30.9 µM |  |  |  |  |  | 30.2 µM |  | 25.3 µM |  |  |
| O=c1[nH]c(Br)nc2n[nH]nc12 |  | > 100 µM |  | > 100 µM | > 100 µM | 44.3 µM | > 100 µM |  | > 100 µM |  | > 100 µM |  | > 100 µM |  | > 100 µM |  | > 100 µM |  |  |
